Data reported in publication PMC5118709, “Identification of Polo-like kinase 1 interaction inhibitors using a novel cell-based assay” (Scientific Reports, 2016).
Several values for one entry are separate records, joined by “and”; a condition that tells them apart may be missing. Equal entries are not always repeated.

Assays:
HeLa cells [1] = experiment: mitotic index assay (phospho-Histone H3) in HeLa cells; type: cell-based; conditions: 10-25 μM, 7 h
HeLa cells [2] = experiment: mitotic defect phenotypes by immunofluorescence; type: cell-based; conditions: 10 μM, 7 h
Outline: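 HeLa cells on poly-L-lysine coverslips treated 7 h, fixed in 4% formaldehyde/PHEM at 37 °C. Immunostained for pericentrin and α-tubulin with DAPI for DNA; spindle organisation scored by fluorescence microscopy against DMSO controls.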

PBD of Plk1 = PBD of Plk1 (Homo sapiens, UniProt P53350); experiment: fluorescence polarization assay PBD-Map peptide; type: binding
Protocol: The FP buffer was composed of 10 mM Tris pH 8.0, 50 mM NaCl, 1 mM EDTA, 20% glycerol and 0.1% NP-40. The peptide (final concentration 10 nM) was always added to the wells of non-binding, black, 384-well plates, 1 hour after the addition of the protein with the buffer (+/− treatment, 10% DMSO). […] EC65s were used to perform the competitive assays with the non-labeled peptides and with the inhibitors. FP Inhibition was calculated with the formula: 100 − [((mPsample − mPfree peptide)\(mPDMSO − mPfree peptide)) × 100]. […] (Map peptide), and corresponding non-labeled peptides are identical but without FITC in N-terminal. […] Inhibition curves were fitted with GraphPad (Prism software).

Plk1-Map interaction [3] = molecular target: T1, Plk1-Map interaction (Homo sapiens, UniProt P53350); experiment: LUMIER co-immunoprecipitation assay Plk1-Map
Protocol: After cell lysis, GFP-Plk1 was immunoprecipitated and co-purified Map-Luc was measured by luminescence following addition of the luciferase substrate, coelenterazine.
Half a million stably transfected Map205-RLucII/GFP10-Plk1 cells in Tyrode solution were seeded per well in a 96-well plate and allowed to settle for 30 min at 37 °C. […] Plates were then centrifuged at 4 °C at 3000 rpm for 5 minutes to pellet cells. Cells were then lysed with the IP buffer (20 mM Tris pH 7.5, 150 mM NaCl, 2 mM EGTA, 0.5% NP-40, 1 mM DTT, PMSF, aprotinin and leupeptin) and incubated on ice for 20 minutes. Plates were centrifuged again at 4 °C at 3400 rpm for 10 minutes, and the soluble fraction was transferred into a new 96-well plate. Note that 10 μl of this fraction was transferred in white 96-well plates from which the luminescence was read as a measure of the input amount of cell lysate for the co-IP. GFP-Plk1 was immunoprecipitated by adding 0.35 μl of anti-GFP antibody (Invitrogen). Plates were sealed and incubated on a rotator at 4 °C for 30 minutes. Then, 4 μl of pre-washed protein A magnetic beads (Invitrogen) were added to each well. Plates were sealed and incubated at 4 °C for 1h30. The extracts + beads were then transferred in a 96-well PCR plates and beads were washed 3 times with the IP buffer using a magnetic 96-well rack. The fourth wash was done in Tyrode solution, then beads were re-suspended with it and transferred in a white 96-well plate. […] Tyrode was also added to the plates containing the input fraction, then Coelenterazine h was added to the wells, and enhanced luminescence was read as described above.

GST-PBD367-603 of Plk1 = GST-PBD367-603 of Plk1 (Homo sapiens, UniProt P53350); experiment: fluorescence polarization assay PBD-phosphopeptide
HEK293T cells = experiment: mitotic index assay (phospho-Histone H3) in HEK293T cells; conditions: 10 μM
Protocol: For the mitotic index assay, 4000 HeLa cells or 5000 HEK293T cells per well were seeded in a 96-well plate. The day after, cells were incubated for 7 hours with different compounds, and then fixed by adding formaldehyde (4% final concentration) directly to each well. Plates were incubated 20 minutes at 37 °C, and then wells were rinsed three times with TBS-Tween 0.1%. A 1 hour block with PHEM buffer (60 mM Pipes, 25 mM HEPES, 10 mM EGTA, 4 mM MgSO4, pH 6.9) containing 2% BSA and 0.1% triton was performed, before addition of the primary antibody to the wells. The anti-phospho-Histone H3 (Ser10) antibody (EMD Millipore) was diluted 1:300 in PHEM buffer containing 2% BSA and added to the wells for 2 hours at room temperature in the dark. […] Plates were incubated for 1h 30 at room temperature in the dark, and then wells were washed 3 times with TBS-Tween 0.1%. A solution of Mowiol containing DAPI was finally added to the wells. Plates were kept at 4 °C in the dark until imaging using the 20x objective on an Operetta system (Perkin Elmer inc.). The mitotic index, corresponding to the percentage of pHH3 positive cells relative to the total number of DAPI-stained cells detected was calculated by the Operetta using the Harmony 3.5 software. Experiments were done in triplicates.

Plk1-Map interaction [4] = molecular target: T1, Plk1-Map interaction; experiment: BRET Plk1-Map, transient Luc-Map/Plk1-GFP in HEK293T; type: cell-based; design: cDNAs for the human full length Plk1; expressed in transfected cells; conditions: confirmation screen
Protocol: For the confirmation screen, the same procedure as for the primary screen was followed, except that HEK293T cells were also seeded at 6.25 millions of cells per simple CellStack on day 1 for transient transfections. These cells were transfected on day 3 with Luc-Map (5 μg) and Plk1-GFP (25 μg) pIRESHyg3 plasmids using polyethylenimine (PEI). To identify false-positives compounds, Luc-CRAF (4 μg) and GFP-BRAF (20 μg) plasmids were also transfected with PEI following the published procedure.

Chain of GST-PBD367-603 of Plk1 (P53350 367-603): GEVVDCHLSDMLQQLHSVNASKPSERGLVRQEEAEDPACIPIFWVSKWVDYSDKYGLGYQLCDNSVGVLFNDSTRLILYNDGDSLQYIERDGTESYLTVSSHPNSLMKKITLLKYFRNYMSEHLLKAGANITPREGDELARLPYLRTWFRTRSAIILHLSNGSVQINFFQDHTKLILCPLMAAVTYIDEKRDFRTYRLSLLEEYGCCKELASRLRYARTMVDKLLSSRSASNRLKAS
T1 sequence (P53350 whole entry): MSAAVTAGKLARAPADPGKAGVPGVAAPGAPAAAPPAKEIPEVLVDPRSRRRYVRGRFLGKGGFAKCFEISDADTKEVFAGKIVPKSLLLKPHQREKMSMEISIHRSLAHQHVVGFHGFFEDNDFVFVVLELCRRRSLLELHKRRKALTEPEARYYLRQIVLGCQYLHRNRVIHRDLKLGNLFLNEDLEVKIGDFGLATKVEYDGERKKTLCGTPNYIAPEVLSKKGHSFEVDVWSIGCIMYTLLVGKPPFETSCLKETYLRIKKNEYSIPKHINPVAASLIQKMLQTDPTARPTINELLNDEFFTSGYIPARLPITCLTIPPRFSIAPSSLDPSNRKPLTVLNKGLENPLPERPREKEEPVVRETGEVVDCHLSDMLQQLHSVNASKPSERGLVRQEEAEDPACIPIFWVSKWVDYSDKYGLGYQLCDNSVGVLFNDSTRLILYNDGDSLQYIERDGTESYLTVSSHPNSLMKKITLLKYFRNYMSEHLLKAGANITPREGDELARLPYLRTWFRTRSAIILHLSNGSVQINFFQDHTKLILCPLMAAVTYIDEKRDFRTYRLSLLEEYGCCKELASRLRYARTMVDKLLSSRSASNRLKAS
Chain of PBD of Plk1 (P53350 367-603 limits assumed): as the sequence (P53350 367-603) above

disruption of the PBD-Map interaction in FP (PBD of Plk1): disrupted the PBD-Map interaction
Average-Beads (mean luminescence) (Plk1-Map interaction [3]; 10-25 μM, 2 h): 25,276
Co-IP Values relative to top in plate column = 1 (Plk1-Map interaction [3]; 10-25 μM, 2 h): 0.022
Relative Luminescence Unit (Plk1-Map interaction [3]; mean divided by maximum mean of the compounds): 0.022
Luminescence on beads, duplicate wells (Plk1-Map interaction [3]; raw data, 10-25 μM, 2 h): 21,904 and 28,648
IC50 (GST-PBD367-603 of Plk1; FP - IC50 (μM), Table S3): 18.4 ± 10.2 µM
IC50 (GST-PBD367-603 of Plk1; IC50 in FP, GST-PBD367-603 38 nM, 1 h pre-incubation, FITC-phosphopeptide 10 nM, Fig. 4C): ~16 µM and 16 µM
Confirmation Plk1-Map (transient) % Inihibition (Plk1-Map interaction [4]): 30.06%
Confirmation Plk1-Map (transient) % Quench RLuc (Plk1-Map interaction [4]): 74.57%
Structure (SMILES): Cc1cc(C(F)(F)F)cc(S(=O)(=O)CCOC(=O)c2cccc(Cl)c2)n1 [Cpd 16, 2-((6-methyl-4-(trifluoromethyl)pyridin-2-yl)sulfonyl)ethyl 3-chlorobenzoate]
Mitotic index (%) (HeLa cells [1]): 15.73%
2 > pericentrin foci (percentage of cells) (HeLa cells [2]): 23 ± 11%
Disorganized spindles (percentage of cells) (HeLa cells [2]): 58 ± 13%
effect on the Plk1-Map interaction in co-IP (Plk1-Map interaction [3]; 10-25 μM, 2 h): disrupts the interaction with similar or better efficiency than TQ or PPG
effect on mitotic index, purchased compounds (HEK293T cells): effective
